From patent US20250312258A1, “2,3-PYRROLIDINEDIONE CONJUGATES AND METHODS OF USING THEREOF” (North Carolina State University, priority 2022, published 2025)
Values after ≈ are worked out from the molar mass of the structure shown. Like-named read-outs stand apart in the source and are kept apart here.

Columns and labels:
Format in all cases: cell-based
[1] = system: E. coli; assay: MIC against E. coli strains; settings: the 4th table
[2] = system: VRSA; assay: MIC against VRSA strain panel (VRS/NRS strains); settings: Staphylococcus aureus, read-out: MIC
[3] = system: Group B Strep; assay: MIC against Group B Strep strain panel; settings: read-out: MIC
[4] = system: Group A Strep; assay: MIC against Group A Strep strain panel; settings: read-out: MIC
[5] = system: MRSA; assay: MIC against MRSA strain panel; settings: Staphylococcus aureus, the 4th table, read-out: MIC

MIC ([1]; AR-137 E. coli): >64 µg/mL
MIC ([1]; Escherichia coli, ATCC25922, ATCC 25922 E. coli, read-out: MIC): > 64 µg/mL
MIC ([1]; Escherichia coli, AR-451 E. coli, read-out: MIC): > 64 µg/mL
MIC ([2]; NRS 1 / VRSA, NRS-1 (VRSA), the 3rd table): 4 µg/mL (≈ 9.67 µM)
MIC ([2]; NRS 1 / VRSA, NRS-1 VRSA, the 5th table): 4 µg/mL (≈ 9.67 µM)
MIC ([2]; NRS 2 / VRSA, NRS-2 VRSA, the 5th table): 2 µg/mL (≈ 4.84 µM)
MIC ([2]; VRSA, VRS-1 (VRSA), the 3rd table): 32 µg/mL (≈ 77.4 µM)
MIC ([2]; VRSA, VRS-1 VRSA, the 5th table): 32 µg/mL (≈ 77.4 µM)
MIC ([2]; VRSA, VRS-2 (VRSA), the 3rd table): 8 µg/mL (≈ 19.3 µM)
MIC ([2]; VRSA, VRS-2 VRSA, the 5th table): 8 µg/mL (≈ 19.3 µM)
MIC ([2]; VRSA, VRS-3a VRSA, the 5th table): 4 µg/mL (≈ 9.67 µM)
MIC ([2]; VRSA, VRS-3b VRSA, the 5th table): > 64 µg/mL
MIC ([2]; VRSA, VRS-4 (VRSA), the 3rd table): 16 µg/mL (≈ 38.7 µM)
MIC ([2]; VRSA, VRS-4 VRSA, the 5th table): 16 µg/mL (≈ 38.7 µM)
MIC ([2]; VRSA, VRS-5 VRSA, the 5th table): 32 µg/mL (≈ 77.4 µM)
MIC ([2]; VRSA, VRS-6 VRSA, the 5th table): 32 µg/mL (≈ 77.4 µM)
MIC ([2]; VRSA, VRS-7 VRSA, the 5th table): 32 µg/mL (≈ 77.4 µM)
MIC ([2]; VRSA, VRS-8 VRSA, the 5th table): 64 µg/mL (≈ 155 µM)
MIC ([2]; VRSA, VRS-9 VRSA, the 5th table): 64 µg/mL (≈ 155 µM)
MIC ([2]; VRSA, VRS-10 VRSA, the 5th table): 32 µg/mL (≈ 77.4 µM)
MIC ([2]; VRSA, VRS-11a VRSA, the 5th table): 64 µg/mL (≈ 155 µM)
MIC ([2]; VRSA, VRS-11b VRSA, the 5th table): 64 µg/mL (≈ 155 µM)
MIC ([3]; 2008-57 Group B Strep, the 9th table): 0.25 µg/mL (≈ 0.605 µM)
MIC ([3]; 2008-70 Group B Strep, the 9th table): ≤ 0.125 µg/mL
MIC ([3]; 2008-87 Group B Strep, CA-MHB w/5% LHB, the 4th table): 0.25 µg/mL (≈ 0.605 µM)
MIC ([3]; 2008-115 Group B Strep, the 9th table): 0.25 µg/mL (≈ 0.605 µM)
MIC ([3]; 2009-20 Group B Strep, the 9th table): 0.25 µg/mL (≈ 0.605 µM)
MIC ([3]; 2009-40 Group B Strep, the 9th table): 0.25 µg/mL (≈ 0.605 µM)
MIC ([3]; 2009-43 Group B Strep, the 9th table): ≤ 0.125 µg/mL
MIC ([3]; 2009-51 Group B Strep, the 9th table): ≤ 0.125 µg/mL
MIC ([3]; 2009-57 Group B Strep, the 9th table): 0.25 µg/mL (≈ 0.605 µM)
MIC ([3]; 2009-59 Group B Strep, the 9th table): 0.25 µg/mL (≈ 0.605 µM)
MIC ([3]; 2009-60 Group B Strep, the 9th table): 0.25 µg/mL (≈ 0.605 µM)
MIC ([3]; 2009-61 Group B Strep, CA-MHB w/5% LHB, the 4th table): 0.25 µg/mL (≈ 0.605 µM)
MIC ([3]; 2009-62 Group B Strep, CA-MHB w/5% LHB, the 4th table): ≤ 0.125 µg/mL
MIC ([3]; J4182 Group B Strep, the 9th table): ≤ 0.125 µg/mL
MIC ([3]; J4183 Group B Strep, the 9th table): 0.25 µg/mL (≈ 0.605 µM)
MIC ([3]; J4185 Group B Strep, the 9th table): 0.25 µg/mL (≈ 0.605 µM)
MIC ([3]; J4186 Group B Strep, the 9th table): 0.25 µg/mL (≈ 0.605 µM)
MIC ([3]; J4222 Group B Strep, the 9th table): 0.25 µg/mL (≈ 0.605 µM)
MIC ([4]; 2007-11 Group A Strep, the 8th table): 0.25 µg/mL (≈ 0.605 µM)
MIC ([4]; 2007-28 Group A Strep, the 8th table): < 0.125 µg/mL
MIC ([4]; 2007-49 Group A Strep, the 8th table): ≤ 0.125 µg/mL
MIC ([4]; 2007-73 Group A Strep, the 8th table): ≤ 0.125 µg/mL
MIC ([4]; 2007-107 Group A Strep, the 8th table): 0.25 µg/mL (≈ 0.605 µM)
MIC ([4]; 2007-1101 Group A Strep, the 8th table): ≤ 0.125 µg/mL
MIC ([4]; 2008-06 Group A Strep, the 8th table): ≤ 0.125 µg/mL
MIC ([4]; 2008-45 Group A Strep, the 8th table): ≤ 0.125 µg/mL
MIC ([4]; 2008-818 Group A Strep, CA-MHB w/5% LHB, the 4th table): ≤ 0.125 µg/mL
MIC ([4]; 2008-1565 Group A Strep, the 8th table): 0.25 µg/mL (≈ 0.605 µM)
MIC ([4]; 2008-1692 Group A Strep, the 8th table): 0.25 µg/mL (≈ 0.605 µM)
MIC ([4]; 2008-1732 Group A Strep, CA-MHB w/5% LHB, the 4th table): ≤ 0.125 µg/mL
MIC ([4]; 2009-8 Group A Strep, the 8th table): 0.25 µg/mL (≈ 0.605 µM)
MIC ([4]; 2009-37 Group A Strep, CA-MHB w/5% LHB, the 4th table): ≤ 0.125 µg/mL
MIC ([4]; 2009-106 Group A Strep, the 8th table): 0.25 µg/mL (≈ 0.605 µM)
MIC ([4]; 2009-109 Group A Strep, the 8th table): ≤ 0.125 µg/mL
MIC ([4]; 2009-114 Group A Strep, the 8th table): 0.25 µg/mL (≈ 0.605 µM)
MIC ([4]; 2009-136 Group A Strep, the 8th table): ≤ 0.125 µg/mL
MIC ([5]; 6215 MRSA): 1 µg/mL (≈ 2.42 µM)
MIC ([5]; 6217 MRSA): 0.5 µg/mL (≈ 1.21 µM)
MIC ([5]; 6218 MRSA): 1 µg/mL (≈ 2.42 µM)
SMILES: CCC1C(c2ccc(C(F)(F)F)cc2)=C(O)C(=O)N1CCCNCCCCNC (stereo not shown) [Compound 8]
